Melting point data for 111 compounds are collected here from a melting point compilation (Tetko et al.).

What is called melting point is the temperature of the solid-liquid transition. Take `CC(=O)OC1CC2C(C)C(=O)C3(C(OC(C)=O)CC4C5(C)CCCC4(C(OC(C)=O)OC5)C13)C2OC(C)=O` (stereo unspecified): the melting point came out at 104 °C.
Compound `C#CCCCCCCCCCCCC` had a melting point of 0 °C.
As to `CC1CCC(C(C)C)C(OC(=O)C(c2ccccc2)c2ccccc2)C1` (stereo unspecified), the melting point was determined as 53 °C.
Next, `Cc1cc(C(=O)NN)nn1C(C)(C)C`: 85 to 88 °C.
`C=CCn1c(SC)nc2ccccc2c1=O` had a melting point of 75 to 77 °C.
For the compound `Cc1ccc(Cl)c(O)c1F`, the melting point was found to be 48 °C.
`CN1CCN(C2=Nc3ccccc3Cc3ccccc32)CC1` gave a melting point of 137 °C.
For the compound `FC(F)(F)C(F)(F)C(F)(F)C(F)(F)C(F)(F)C(F)(F)C(F)(F)C(F)(F)I`, the melting point stood at 37 °C.
On to `Cc1c(N)cccc1C(=O)O`, for which the melting point stood at 187 °C.
In turn, `CC1C2Cc3ccc(O)cc3C1(C)CCN2CCc1ccccc1` (stereo unspecified) returned a melting point of 181 °C.
Regarding `CCOC(=O)c1c(NC(=O)C(Cl)Cl)sc2c1CCCC2`, the melting point was 120 to 122 °C.
In turn, `O=C(O)C(O)C(Cl)(Cl)Cl` (stereo unspecified) gave a melting point of 125 °C.
Compound `Cc1cccc2c1Cc1ccccc1-2` registered a melting point of 85 °C.
In the case of `CNC1CCC(c2ccc(Cl)c(Cl)c2)c2ccccc21` (stereo unspecified), the melting point came to 244 °C.
Consider `O=C(O)CCC(F)(F)F`, for which the melting point amounted to 31 °C.
Regarding `CC(CC1CC(=O)c2c3c(c4ccccc4c2O1)O[C@@H]1CC(=O)O[C@H]31)O[Si](C)(C)C(C)(C)C` (stereo partly specified), the melting point is 131 to 133 °C.
As for `O=C(Nc1ccccc1)Nc1ccnc(Cl)c1`, the melting point is 167 °C.
Turning to `CCc1cc(CC)cc(CC)c1`, the melting point was -66.5 °C.
Consider `CSc1ccccc1C(=O)O`, for which the melting point was in the range of 170 to 173 °C.
For the compound `COC(=O)C(=O)C1CCc2cc(OC)ccc2C1=O` (stereo unspecified), the melting point stood at 71 °C.
Regarding `Cc1ccc(C(=O)/C=C/c2ccc(-c3ccc(Cl)cc3)o2)o1`, the melting point turned out to be 171 °C.
Regarding `CC(C)CC(C)O` (stereo unspecified), the melting point is -90 °C.
For `CN(C)c1ccc(/C=C(\C#N)c2nc3ccccc3n2C)cc1`, the melting point turned out to be 151 °C.
In the case of `O=Cc1ccc(-c2cc(C(F)(F)F)cc(C(F)(F)F)c2)o1`, the melting point was in the range of 109 to 110 °C.
Consider `C/C(=N\c1ccccc1O)c1c(O)c2ccccc2n(-c2ccccc2)c1=O`, for which the melting point was 268 to 269 °C.
As for `CCCCCCCCCCCCl`, the figure is -17 °C; as for `Cc1cc(=O)oc2[nH]nc(C)c12`, 251 to 252 °C; as for `N#C/C(=N/Nc1ccccc1)c1nc(-c2ccc(Cl)cc2)cs1`, 178 °C.
Next, `CCC1(O)CCC2C3CCC4=CCCCC4C3CCC21C` (stereo unspecified): 77 °C; `C=CF`: -160 °C.
As for `CC(C)CC(N)CC(=O)O` (stereo unspecified), the figure is 249 to 250 °C.
As for `O=[N+]([O-])c1ccc(NN=Cc2cccc3c(Br)cccc23)c([N+](=O)[O-])c1`, the melting point is 222 °C.
As for `C/C(=N\c1ccc(O)c(C)c1)c1c(O)c2ccccc2n(-c2ccccc2)c1=O`, the melting point was in the range of 231 to 232 °C.
`Nc1cc(N)c(C(=O)CI)cc1C(=O)CI` registered a melting point of 165 °C.
Turning to `COC1C(O)C(C)OC(OC2CCC3(C=O)C(CCC4C3CCC3(C)C(C5=CC(=O)OC5)CCC43O)C2)C1O` (stereo unspecified), the melting point is 162 °C.
Take `CCc1cc(C(=O)c2ccc(OC)cc2)c(N)s1`: the melting point was 100 to 102 °C.
Compound `CS(=O)(=O)N1CCNCC1` had a melting point of 99 to 100 °C.
Next, `Cc1nc2cc(O)ccc2s1`: 186 °C; `NCC(O)CC(=O)O` (racemic): 202 °C.
Take `O=C(O)c1cc([N+](=O)[O-])c(O)c([N+](=O)[O-])c1`: the melting point came to 250 °C.
`CC12CC(O)C3C(CCC4CC(O)CCC43C)C1CCC2=O` (stereo unspecified) yielded a melting point of 235 °C.
Compound `CC(=O)N[C@@H](CC(C)C)C(=O)O` yielded a melting point of 178 °C.
Next, `CC(C)OC(=O)C(C(=O)OC(C)C)=C1SCCS1`: 54.9 °C; `C=Cc1ccc2c(c1)OCCOCCOCCOCCO2`: 35 to 43 °C; `O=C(O)C(F)=Cc1ccccc1`: 158 °C.
The compound `COc1ccc(-c2nnc3n2NC(c2ccc([N+](=O)[O-])cc2)S3)cc1` (stereo unspecified) registered a melting point of 209 to 211 °C.
In turn, `COc1cc2c(c(OC)c1OC)C(=O)[C@]1(OC)C=C[C@H]2N(c2ccccc2)O1` had a melting point of 114 °C.
`CCCCN(CCCC)CCCN` displayed a melting point of -50 °C.
In turn, `O=C(c1ccc2c(c1)C(=O)OC2=O)c1ccc2c(c1)C(=O)OC2=O` registered a melting point of 219 to 226 °C.
Next, `Cc1nc(-c2ccccn2)nc(O)c1Cl`: 142 to 144 °C.
As for `CCOC(=O)c1cc2cc(F)ccc2[nH]1`, the figure is 150 °C; as for `O=[N+]([O-])c1ccc(-c2nnc3sc(/C=C/c4ccccc4)nn23)cc1`, 112 to 114 °C.
`Brc1ccc2c3c(cccc13)CC2`: the melting point came to 52 °C.
The compound `CC(C)(C)OC(=O)N1CCC(C(N)=S)CC1` had a melting point of 130 to 131 °C.
`Cc1ccc(S(=O)(=O)O)c(C)c1` gave a melting point of 57 °C.
`OCc1ccc2ccccc2c1` gave a melting point of 81.3 °C.
Turning to `FC(F)(F)C(F)(F)C(F)(F)C(F)(F)C(F)(F)C(F)(F)C(F)(F)C(F)(F)C(F)(F)C(F)(F)C(F)(F)C(F)(F)F`, the melting point lay in the range of 75 to 77 °C.
With `c1ccc(C2CCc3ccccc3O2)cc1` (stereo unspecified), the melting point came to 46.3 °C.
In turn, `O=C(O)c1cc2cc(O)ccc2[nH]1` returned a melting point of 249 °C.
Regarding `CCCOC(=O)CCCCC(=O)OCCC`, the melting point is -15.7 °C.
On to `c1ccc(-c2nnc3n2CN(c2ccccn2)CS3)cc1`, for which the melting point is 223 to 224 °C.
Next, `CC(C)(C)N(NC(=O)c1ccccc1)C(=O)c1cccc(F)c1`: 176 °C; `Brc1ccc(-c2ccccn2)s1`: 87 to 89 °C.
With `COC(=O)c1csc2c(C(F)(F)F)cc(Cl)nc12`, the melting point is 110 to 111 °C.
Next, `O=C(O)c1ccccc1CCc1ccccc1`: 127 to 132 °C; `CC1CC1C` (stereo unspecified): -141 °C; `NC(=O)C=Cc1ccc(C=CC(N)=O)cc1`: 320 °C.
In turn, `CC(=O)CCc1oc2ccccc2c1-c1ccc(C)o1` came in with a melting point of 54 °C.
The compound `CCOC(=O)CC(=O)c1cc(F)c(Cl)nc1Cl` came in with a melting point of 68 to 72 °C.
As to `COc1cccc(C)c1[N+](=O)[O-]`, the melting point was 50 °C.
For the compound `Cn1c(=O)c(C2=NNC(=O)C2=Cc2ccc(Cl)cc2Cl)c(O)c2ccccc21`, the melting point came to 280 °C.
Next, `CC(C)(C)OC(=O)N1CCN(Cc2cccc(C(=O)O)c2)CC1`: 173 to 175 °C; `COc1ccc(CC(=O)O)cc1C`: 93 to 95 °C; `CC(C)(C)c1ccc(S)cc1`: -11 °C.
Compound `CC(C)C1=C(O)C(=O)C2=C(C1=O)[C@@H]1O[C@@H]1[C@H]1C(C)(C)CCC[C@]21C` returned a melting point of 202 °C.
`CCOC(=O)c1cnc2cc(-c3cccs3)nn2c1C` came in with a melting point of 151 to 153 °C.
As for `N#CCS(=O)(=O)c1cccs1`, the figure is 84 °C; as for `O=[N+]([O-])c1c(Cl)cccc1-c1c[nH]cc1Cl`, 124 °C; as for `CCCCCCCCCCCCCCCC=O`, 35 °C.
Regarding `CN(C)c1ccc(C=C2C(=O)NN=C2c2c(O)c3ccccc3n(C)c2=O)cc1`, the melting point was 262 °C.
As for `COc1ccc(C=O)cc1F`, the figure is 35 °C.
On to `CC1CCC(C(C)C)C(OC(=O)C2=CCC(C(=O)OC3CC(C)CCC3C(C)C)=CC2)C1` (stereo unspecified), for which the melting point came out at 68 °C.
Next, `N#Cc1c(N)cccc1Cl`: 135 to 137 °C; `Brc1cccc(Oc2ccccn2)c1`: 63 to 64 °C; `Cc1cc(C)c(N)c(I)c1`: 65 °C.
For `CC(=O)c1sc(-c2ccccc2)nc1C`, the melting point fell in the range of 67 to 68 °C.
As for `CNC(=O)NC`, the melting point is 108 °C.
Next, `CC12CCC(C(O)C(C(c3ccccc3)C3C(=O)C4(C)CCC(C3O)C4(C)C)C1=O)C2(C)C` (stereo unspecified): 149 °C.
In the case of `CCCCCOc1ccc(O)cc1`, the melting point was in the range of 46 to 49 °C.
As for `Oc1cncc(F)c1`, the melting point is 163 °C.
Next, `CN(C)c1ccc(C(/C=C2\C=Cc3ccccc3N2)c2ccccc2)cc1` (stereo unspecified): 125 °C; `N#CC(=Cc1ccccc1)C(N)=O`: 155 °C; `COC(=O)c1cccc(C=O)c1`: 58 °C.
`c1ccc(-c2nc3ccccc3[nH]2)nc1` registered a melting point of 223 °C.
As to `Br/C=C/Br`, the melting point was -6.5 °C.
As for `CCN(CC)CCOC(=O)c1ccc(N)cc1`, the figure is 61 °C; as for `NC(=S)c1cccnc1`, 185 to 190 °C; as for `CCCCCCCCCCCN`, 16.5 °C.
Consider `CC1(C)OCC(C2OC3OC(C)(C)OC3C2O)O1` (stereo unspecified), for which the melting point was 109 °C.
Compound `Cn1nc(-c2ccc(Cl)cc2)cc1N` yielded a melting point of 150 to 152 °C.
The compound `COC(=O)C=Cc1ccc(OC)c(OC2CCCC2)c1` came in with a melting point of 54 to 57 °C.
With `COc1c(C)c(C)c(OC)c(Br)c1C`, the melting point was found to be 72 °C.
With `Cc1c(C(=O)O)sc2ccc(Cl)cc12`, the melting point was in the range of 290 to 292 °C.
Take `CC(CC(C)(C)C)CC(C)(C)C`: the melting point is -67 °C.
`CC12CCC(C(=O)O)(OC1=O)C2(C)C` (stereo unspecified) yielded a melting point of 200 °C.
For `COc1ccc(C(=O)C=Cc2ccc(-c3ccccc3[N+](=O)[O-])o2)cc1OC`, the melting point lay within 119 to 120 °C.
The compound `C=CCOc1cc(O)c(C(C)=O)c(O)c1` yielded a melting point of 145 to 146 °C.
Regarding `COc1ccc(C=Cc2cc(OC)cc(=O)o2)cc1`, the melting point stood at 156 °C.
`N#Cc1cccc(N2CCCCC2)c1` showed a melting point of 133 to 136 °C.
In turn, `Cc1nc(-c2ccccc2)sc1CO` yielded a melting point of 99 to 102 °C.
Next, `Cc1cc(C)cc(C=O)c1`: 8 to 10 °C.
